Experimental data taken from ChEMBL document CHEMBL4052638, “Multitarget trehalose-carnosine conjugates inhibit Aβ aggregation, tune copper(II) activity and decrease acrolein toxicity” (Eur J Med Chem, 2017).
Calls of active or inactive are those of the source. No cut-off for these calls is given here.

What was measured:
[1] = Drug metabolism assessed as human recombinant carnosinase mediated compound hydrolysis at 0.5 mM after 1.5 hrs by RP-HPLC analysis; type: ADME; conditions: 500 µM
[2] = Antiglycating activity in phosphate buffer assessed as ACR levels at 10 mM at pH 7.4 after 24 hr by RP-HPLC analysis relative to control; type: physicochemical; conditions: pH 7.4, 24 h, 10000 µM
[3] = Antiglycating activity in phosphate buffer assessed as ACR-compound adduct formation at 10 mM at pH 7.4 after 1 to 24 hrs by HPLC-MS/MS spectra analysis; type: physicochemical; conditions: pH 7.4, 10000 µM
[4] = Antiglycating activity in phosphate buffer assessed as decrease in ACR levels at 10 mM at pH 7.4 up to 4 hrs by RP-HPLC analysis relative to control; type: physicochemical; design: scale not given: the % may be the effect or the level left; conditions: pH 7.4, 4 h, 10000 µM
[5] = Antiglycating activity in phosphate buffer assessed as decrease in ACR levels at 10 mM at pH 7.4 after 1 hr by RP-HPLC analysis relative to control; type: physicochemical; design: scale not given: the % may be the effect or the level left; conditions: pH 7.4, 1 h, 10000 µM
[6] = target: Amyloid-beta precursor protein (Homo sapiens) (UniProt P05067); test: (§1) Inhibition of amyloid beta (1 to 42) (unknown origin) self induced aggregation assessed as time at which amplitude of ThT emission is 50% of difference between final and initial fluorescence emission at 40 to 5000 uM after 3 hrs by ThT-based fluorometric method (reference value: 11 +/- 1 hrs)
[7] = target: Amyloid-beta precursor protein (Homo sapiens) (UniProt P05067); test: Inhibition of amyloid beta (1 to 42) (unknown origin) self induced aggregation assessed as average assembled nanostructure height at 500 uM after 30 hrs by atomic force microscopic analysis
[8] = target: Amyloid-beta precursor protein (Homo sapiens) (UniProt P05067); test: Inhibition of amyloid beta (1 to 42) (unknown origin) self induced aggregation assessed as lag time at 40 to 5000 uM […] by ThT-based fluorometric method (reference value: 8.3 +/- 0.7 hrs)
[9] = target: Amyloid-beta precursor protein (Homo sapiens) (UniProt P05067); test: Inhibition of amyloid beta (1 to 42) (unknown origin) self induced aggregation assessed as fluorescence emission rate constant K at 40 to 5000 uM […] by ThT-based fluorometric method (reference value: 1.3 +/- 0.1)
[10] = target: Amyloid-beta precursor protein (Homo sapiens) (UniProt P05067); test: Inhibition of amyloid beta (1 to 42) (unknown origin) self induced aggregation assessed as reduction in protofibrils formation at 500 uM after 30 hrs by atomic force microscopic analysis
[11] = Inhibition of cupric ion-mediated amyloid beta (1 to 40) aggregation at 20 mM at pH 6.6 after 3 hrs by light scattering assay
[12] = target: Amyloid-beta precursor protein (Homo sapiens) (UniProt P05067); test: Inhibition of amyloid beta (1 to 42) (unknown origin) self induced aggregation assessed as difference between final and initial fluorescence emission at 40 to 5000 uM […] by ThT-based fluorometric method (reference value: 52 +/- 7 a.u.)
[13] = target: Amyloid-beta precursor protein (Homo sapiens) (UniProt P05067); test: Inhibition of amyloid beta (1 to 42) (unknown origin) self induced aggregation […] by ThT-based fluorometric method
[14] = Stability of the compound assessed as human recombinant carnosinase mediated compound hydrolysis at 0.5 mM after 2.5 hrs by RP-HPLC analysis; type: ADME; conditions: 500 µM
[15] = Antiglycating activity in phosphate buffer assessed as decrease in ACR levels at 10 mM at pH 7.4 by RP-HPLC analysis; type: physicochemical; conditions: pH 7.4, 10000 µM, TDE = time-dependent effect
[16] = target: Amyloid-beta precursor protein (Homo sapiens) (UniProt P05067); test: Inhibition of amyloid beta (1 to 42) (unknown origin) self induced aggregation assessed as reduction in flat ribbons formation at 500 uM after 30 hrs by atomic force microscopic analysis
[17] = target: Amyloid-beta precursor protein (Homo sapiens) (UniProt P05067); test: Inhibition of amyloid beta (1 to 42) (unknown origin) self induced aggregation assessed as fluorescence emission rate constant K at 40 to 5000 uM […] in presence of trehalose by ThT-based fluorometric method (reference value: 1.3 +/- 0.1)
[18] = target: Amyloid-beta precursor protein (Homo sapiens) (UniProt P05067); test: as §1, with “in presence of trehalose” for “after 3 hrs”
[19] = target: Amyloid-beta precursor protein (Homo sapiens) (UniProt P05067); test: Inhibition of amyloid beta (1 to 42) (unknown origin) self induced aggregation assessed as difference between final and initial fluorescence emission at 40 to 5000 uM […] in presence of trehalose by ThT-based fluorometric method (reference value: 52 +/- 7 a.u.)
[20] = target: Amyloid-beta precursor protein (Homo sapiens) (UniProt P05067); test: Inhibition of amyloid beta (1 to 42) (unknown origin) self induced aggregation assessed as Tlag at 40 to 5000 uM in presence of trehalose by ThT-based fluorometric method (reference value: 8.3 +/- 0.7 hrs)

Sequence of Amyloid-beta precursor protein (Homo sapiens) (P05067 whole entry): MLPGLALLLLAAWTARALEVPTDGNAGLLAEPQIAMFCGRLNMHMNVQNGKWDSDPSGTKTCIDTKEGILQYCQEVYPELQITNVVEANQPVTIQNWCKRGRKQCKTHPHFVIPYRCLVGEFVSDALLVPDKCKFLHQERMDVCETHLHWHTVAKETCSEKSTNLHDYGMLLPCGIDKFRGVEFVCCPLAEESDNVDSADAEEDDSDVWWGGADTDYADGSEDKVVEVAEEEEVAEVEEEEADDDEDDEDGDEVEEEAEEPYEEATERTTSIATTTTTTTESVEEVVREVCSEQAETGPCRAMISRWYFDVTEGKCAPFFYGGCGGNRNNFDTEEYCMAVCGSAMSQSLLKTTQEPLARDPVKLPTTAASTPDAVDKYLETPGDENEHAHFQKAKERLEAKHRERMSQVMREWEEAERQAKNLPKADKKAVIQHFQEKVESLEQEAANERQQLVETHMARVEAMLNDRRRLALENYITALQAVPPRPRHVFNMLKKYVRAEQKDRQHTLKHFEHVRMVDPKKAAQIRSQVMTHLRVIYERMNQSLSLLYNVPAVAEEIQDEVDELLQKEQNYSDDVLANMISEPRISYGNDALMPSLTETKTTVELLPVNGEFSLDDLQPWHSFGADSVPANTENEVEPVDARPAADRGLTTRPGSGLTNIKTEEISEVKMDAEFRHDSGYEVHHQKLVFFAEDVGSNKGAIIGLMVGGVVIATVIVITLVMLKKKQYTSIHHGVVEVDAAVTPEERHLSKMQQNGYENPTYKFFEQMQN

SMILES: NCCC(=O)N[C@@H](Cc1cnc[nH]1)C(=O)O [CARNOSINE]
- Drug metabolism [1]: Metabolite_Detected
- Activity [2]: 0%
- Activity [3]: Active
- Activity [4]: 0%
- Activity [5]: 40%

SMILES: O=C(CCNC[C@H]1O[C@H](O[C@H]2O[C@H](CO)[C@@H](O)[C@H](O)[C@H]2O)[C@H](O)[C@@H](O)[C@@H]1O)N[C@@H](Cc1c[nH]cn1)C(=O)O
- T1/2 [6]: 4.1 h
- Activity [7]: 2.1 nm
- Tlag [8]: 2.7 h
- K [9]: 0.7
- Activity [2]: 1%
- Activity [3]: Active
- inhibition [10]: Active
- inhibition [11]: Active
- Activity [12]: 6 a.u.
- Activity [13]: Dose-dependent effect
- Stability [14]: Stable
- Activity [15]: Tde
- inhibition [16]: Active

SMILES: NCCC(=O)N[C@@H](Cc1c[nH]cn1)C(=O)O
- T1/2 [6]: 7.8 h
- Tlag [8]: 3.9 h
- K [9]: 1.9
- K [17]: 2.7
- inhibition [10]: inactive
- T1/2 [18]: 5.8 h
- inhibition [11]: Active
- Activity [12]: 33 a.u.
- Activity [13]: Dose-dependent effect
- Activity [19]: 31 a.u.
- Tlag [20]: 4.3 h
- inhibition [16]: inactive

SMILES: OC[C@H]1O[C@H](O[C@H]2O[C@H](CO)[C@@H](O)[C@H](O)[C@H]2O)[C@H](O)[C@@H](O)[C@@H]1O
- T1/2 [6]: 8.3 h
- Tlag [8]: 4.7 h
- K [9]: 1.7
- Activity [12]: 37 a.u.
- Activity [13]: Dose-dependent effect
